{"source": "patent US12023333B2", "about": "“Phenyl-sulfamoyl.benzoyc acids as ERAP1 modulators” (GREY WOLF THERAPEUTICS LIMITED, priority 2019, dated 2024)", "note": "pIC50: −log10 of the molar value."}
{"biological_target": "T1, Purified ERAP1(37-941)-10His (ERAP1) (Homo sapiens, UniProt Q9NZ08)", "T1 construct": "Purified ERAP1(37-941)-10His (ERAP1); 10His (C)", "T1 sequence (Q9NZ08 37-941)": "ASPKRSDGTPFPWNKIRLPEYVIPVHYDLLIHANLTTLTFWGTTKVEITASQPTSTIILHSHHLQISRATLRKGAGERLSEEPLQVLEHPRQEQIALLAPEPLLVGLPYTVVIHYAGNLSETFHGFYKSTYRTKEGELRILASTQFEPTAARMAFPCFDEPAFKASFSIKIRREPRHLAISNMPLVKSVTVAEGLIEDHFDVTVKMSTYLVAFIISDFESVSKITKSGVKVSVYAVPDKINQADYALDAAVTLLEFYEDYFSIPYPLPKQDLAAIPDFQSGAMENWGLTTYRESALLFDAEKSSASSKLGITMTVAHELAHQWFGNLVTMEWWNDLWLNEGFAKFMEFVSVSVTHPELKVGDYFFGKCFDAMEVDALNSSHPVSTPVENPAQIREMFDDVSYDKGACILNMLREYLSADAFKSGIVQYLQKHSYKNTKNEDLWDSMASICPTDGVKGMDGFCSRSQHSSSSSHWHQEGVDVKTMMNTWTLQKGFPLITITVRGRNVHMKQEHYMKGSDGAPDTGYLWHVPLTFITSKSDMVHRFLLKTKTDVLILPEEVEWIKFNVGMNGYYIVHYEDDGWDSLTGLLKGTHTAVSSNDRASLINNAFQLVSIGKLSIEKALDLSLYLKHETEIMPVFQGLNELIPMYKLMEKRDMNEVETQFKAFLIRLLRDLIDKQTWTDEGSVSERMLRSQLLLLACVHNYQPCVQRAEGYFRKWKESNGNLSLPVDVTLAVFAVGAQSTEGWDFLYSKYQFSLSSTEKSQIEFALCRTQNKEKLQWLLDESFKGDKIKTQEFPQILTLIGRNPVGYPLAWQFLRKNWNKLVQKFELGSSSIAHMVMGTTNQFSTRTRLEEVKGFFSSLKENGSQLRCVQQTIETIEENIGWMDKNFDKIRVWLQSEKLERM", "experiment": "ERAP1 mediated hydrolysis of an amide substrate measured in a biochemical system (10-mer decapeptide substrate)", "conditions": "10-mer substrate, 23° C. for 1 h, excitation 279 nm and emission 355 nm; read-out: IC50 vs Decapeptide WRVYEKC(Dnp)ALK-acid (where Dnp is Dinitrophenyl maleimide) (10-mer)", "procedure": "Biological Assay 1: ERAP1 Mediated Hydrolysis of an Amide Substrate Measured in a Biochemical System\n1× Assay buffer (AB): 25 mM Bis-tris propane, 0.05% w/v Hydroxypropylmethylcellulose pH 7.75 made with Optima grade water\nDecapeptide WRVYEKC(Dnp)ALK-acid (where Dnp is Dinitrophenyl maleimide) (10-mer) L-Leucine 7-amido-4-methylcoumarin (L-AMC)\n12.5 μL ERAP1 enzyme in 1×AB was combined with 250 nL test compound in DMSO. 12.5 μL of either 240 μM L-AMC in 1×AB or 100 μM 10-mer in 1×AB was added to the reaction and incubated at 23° C. for 1 h. For detection, plates were read at excitation 365 nm and emission 442 nm (L-AMC) or excitation 279 nm and emission 355 nm (10-mer). Compound IC50 was determined using a 4 parameter equation."}
{"smiles": "CS(=O)(=O)c1cc(NS(=O)(=O)c2cc(C(=O)O)ccc2C2CC2)c(-c2ccccn2)cc1Cl", "note": "[Example 171, 3-(N-(4-chloro-5-(methylsulfonyl)-2-(pyridin-2-yl)phenyl)sulfamoyl)-4-cyclopropylbenzoic acid]", "pIC50": "> 6.30"}
{"smiles": "N#Cc1ccc(-c2cccc(F)c2)c(NS(=O)(=O)c2cc(C(=O)O)ccc2C2CC2)c1", "note": "[Example 94, 3-(N-(4-cyano-3′-fluoro-[1,1-biphenyl]-2-yl)sulfamoyl)-4-cyclopropylbenzoic acid]", "pIC50": "> 6.30"}
{"smiles": "N#Cc1ccc(-c2ccc(C(F)(F)F)cc2NS(=O)(=O)c2cc(C(=O)O)ccc2C2CC2)s1", "note": "[Example 127, 3-(N-(2-(5-cyanothiophen-2-yl)-5-(trifluoromethyl)phenyl)sulfamoyl)-4-cyclopropylbenzoic acid]", "pIC50": "> 6.30"}
{"smiles": "COc1ccc(C(=O)O)cc1S(=O)(=O)Nc1cc(C(F)(F)F)ccc1-c1ccc(Cl)cc1", "note": "[Example 49, 3-(N-(4′-chloro-4-(trifluoromethyl)-[1,1′-biphenyl]-2-yl)sulfamoyl)-4-methoxybenzoic acid]", "pIC50": "> 6.30"}
{"smiles": "COc1ccc(C(=O)O)cc1S(=O)(=O)Nc1cc(C(F)(F)F)ccc1-c1cccs1", "note": "[Example 3, 4-methoxy-3-(N-(2-(thiophen-2-yl)-5-(trifluoromethyl)phenyl)sulfamoyl)benzoic acid]", "pIC50": "> 6.30"}
{"smiles": "COc1ccc(C(=O)O)cc1S(=O)(=O)Nc1cc(C#N)ccc1-c1ccc(F)s1", "note": "[Example 100, 3-(N-(5-cyano-2-(5-fluorothiophen-2-yl)phenyl)sulfamoyl)-4-methoxybenzoic acid]", "pIC50": "> 6.30"}
{"smiles": "N#Cc1cc(NS(=O)(=O)c2cc(C(=O)O)ccc2C2CC2)c(-n2cccc2)cc1F", "note": "[Example 157, 3-(N-(5-cyano-4-fluoro-2-(pyrrol-1-yl)phenyl)sulfamoyl)-4-cyclopropylbenzoic acid]", "pIC50": "> 6.30"}
{"smiles": "COc1ccc(C(=O)O)cc1S(=O)(=O)Nc1cc(C(F)(F)F)ccc1-c1ccc(C)s1", "note": "[Example 79, 4-methoxy-3-(N-(2-(5-methylthiophen-2-yl)-5-(trifluoromethyl)phenyl)sulfamoyl)benzoic acid]", "pIC50": "> 6.30"}
{"smiles": "CCc1ccc(C(=O)O)cc1S(=O)(=O)Nc1cc(C(F)(F)F)ccc1-c1cccc(F)c1", "note": "[Example 24, 4-ethyl-3-(N-(3′-fluoro-4-(trifluoromethyl)-[1,1′-biphenyl]-2-yl)sulfamoyl) benzoic acid]", "pIC50": "> 6.30"}
{"smiles": "CC(C)(C)c1ccc(C(=O)O)cc1S(=O)(=O)Nc1cc(C#N)ccc1-c1ccccn1", "note": "[Example 173, 4-(tert-butyl)-3-(N-(5-cyano-2-(pyridin-2-yl)phenyl)sulfamoyl) benzoic acid]", "pIC50": "> 5.30"}
{"smiles": "CCc1ccc(C(=O)O)cc1S(=O)(=O)Nc1cc(C(F)(F)F)c(Cl)cc1-n1cccc1", "note": "[Example 131, 3-(N-(4-chloro-2-(pyrrol-1-yl)-5-(trifluoromethyl)phenyl)sulfamoyl)-4-ethylbenzoic acid]", "pIC50": "> 6.30"}
{"smiles": "Cc1oncc1-c1cc(NS(=O)(=O)c2cc(C(=O)O)ccc2C2CC2)c(-c2ccccn2)cc1Cl", "note": "[Example 193, 3-(N-(4-chloro-5-(5-methylisoxazol-4-yl)-2-(pyridin-2-yl)phenyl)sulfamoyl)-4-cyclopropylbenzoic acid]", "pIC50": "> 6.30"}
{"smiles": "N#Cc1ccc(-c2ccc(Cl)s2)c(NS(=O)(=O)c2cc(C(=O)O)ccc2C2CC2)c1", "note": "[Example 111, 3-(N-(2-(5-chlorothiophen-2-yl)-5-cyanophenyl)sulfamoyl)-4-cyclopropylbenzoic acid]", "pIC50": "> 6.30"}
{"smiles": "O=C(O)c1ccc(C2CC2)c(S(=O)(=O)Nc2cc(C(F)(F)F)c(F)cc2-n2cccc2)c1", "note": "[Example 155, 4-cyclopropyl-3-(N-(4-fluoro-2-(pyrrol-1-yl)-5-(trifluoromethyl)phenyl)sulfamoyl)benzoic acid]", "pIC50": "> 6.30"}
{"smiles": "COc1ccc(C(=O)O)cc1S(=O)(=O)Nc1cc(C(F)(F)F)ccc1-c1cccc(C#N)c1", "note": "[Example 7, 3-(N-(3′-cyano-4-(trifluoromethyl)-[1,1′-biphenyl]-2-yl)sulfamoyl)-4-methoxybenzoic acid]", "pIC50": "> 6.30"}
{"smiles": "CCc1ccc(C(=O)O)cc1S(=O)(=O)Nc1cc(C#N)ccc1-c1ccccc1", "note": "[Example 40, 3-(N-(4-cyano-[1,1′-biphenyl]-2-yl)sulfamoyl)-4-ethylbenzoic acid]", "pIC50": "> 6.30"}
{"smiles": "CCc1ccc(C(=O)O)cc1S(=O)(=O)Nc1cc(C(F)(F)F)ccc1-n1cccn1", "note": "[Example 31, 3-(N-(2-(pyrazol-1-yl)-5-(trifluoromethyl)phenyl)sulfamoyl)-4-ethylbenzoic acid]", "pIC50": "> 6.30"}
{"smiles": "COc1ccc(C(=O)O)cc1S(=O)(=O)Nc1cc(C#N)ccc1-c1ccc(Cl)s1", "note": "[Example 90, 3-(N-(2-(5-chlorothiophen-2-yl)-5-cyanophenyl)sulfamoyl)-4-methoxybenzoic acid]", "pIC50": "> 6.30"}
{"smiles": "CS(=O)(=O)c1ccc(-c2cccc(F)c2)c(NS(=O)(=O)c2cc(C(=O)O)ccc2C2CC2)c1", "note": "[Example 93, 4-cyclopropyl-3-(N-(3′-fluoro-4-(methylsulfonyl)-[1,1′-biphenyl]-2-yl)sulfamoyl)benzoic acid]", "pIC50": "> 6.30"}
{"smiles": "COc1ccc(C(=O)O)cc1S(=O)(=O)Nc1cc(C(F)(F)F)ccc1-c1ccccn1", "note": "[Example 26, 4-methoxy-3-(N-(2-(pyridin-2-yl)-5-(trifluoromethyl)phenyl)sulfamoyl) benzoic acid]", "pIC50": "> 6.30"}
{"smiles": "CCc1ccc(C(=O)O)cc1S(=O)(=O)Nc1cc(C(F)(F)F)ccc1-c1cccs1", "note": "[Example 22, 4-ethyl-3-(N-(2-(thiophen-2-yl)-5-(trifluoromethyl)phenyl)sulfamoyl)benzoic acid]", "pIC50": "> 6.30"}
{"smiles": "Cc1oncc1-c1ccc(-c2ccc(F)s2)c(NS(=O)(=O)c2cc(C(=O)O)ccc2C2CC2)c1", "note": "[Example 160, 4-cyclopropyl-3-(N-(2-(5-fluorothiophen-2-yl)-5-(5-methylisoxazol-4-yl)phenyl)sulfamoyl)benzoic acid]", "pIC50": "> 6.30"}
{"smiles": "N#Cc1ccc(-c2ccc(F)s2)c(NS(=O)(=O)c2cc(C(=O)O)ccc2C2CC2)c1", "note": "[Example 102, 3-(N-(5-cyano-2-(5-fluorothiophen-2-yl)phenyl)sulfamoyl)-4-cyclopropylbenzoic acid]", "pIC50": "> 6.30"}
{"smiles": "N#Cc1ccc(-c2ccc(C#N)s2)c(NS(=O)(=O)c2cc(C(=O)O)ccc2C2CC2)c1", "note": "[Example 126, 3-(N-(5-cyano-2-(5-cyanothiophen-2-yl)phenyl)sulfamoyl)-4-cyclopropylbenzoic acid]", "pIC50": "> 6.30"}
{"smiles": "CCc1ccc(C(=O)O)cc1S(=O)(=O)Nc1cc(C(F)(F)F)ccc1-n1cccc1", "note": "[Example 36, 3-(N-(2-(pyrrol-1-yl)-5-(trifluoromethyl)phenyl)sulfamoyl)-4-ethylbenzoic acid]", "pIC50": "> 6.30"}
{"smiles": "CS(=O)(=O)c1ccc(-c2ccc(Cl)s2)c(NS(=O)(=O)c2cc(C(=O)O)ccc2C2CC2)c1", "note": "[Example 123, 3-(N-(2-(5-chlorothiophen-2-yl)-5-(methylsulfonyl)phenyl)sulfamoyl)-4-cyclopropylbenzoic acid]", "pIC50": "> 6.30"}
{"smiles": "N#Cc1cc(NS(=O)(=O)c2cc(C(=O)O)ccc2C2CC2)c(-c2ccccn2)cc1Cl", "note": "[Example 132, 3-(N-(4-chloro-5-cyano-2-(pyridin-2-yl)phenyl)sulfamoyl)-4-cyclopropylbenzoic acid]", "pIC50": "> 6.30"}
{"smiles": "CCc1ccc(C(=O)O)cc1S(=O)(=O)Nc1cc(C(F)(F)F)ccc1-c1nccs1", "note": "[Example 128, 4-ethyl-3-(N-(2-(thiazol-2-yl)-5-(trifluoromethyl)phenyl)sulfamoyl)benzoic acid]", "pIC50": "> 6.30"}
